How the values were obtained:
human Gal-1 (hGal-1) = assay: Competitive binding assay: binding of biotinylated hGal-1 to microplate-adsorbed asialofetuin (ASF); details: Activities on hGal-1; mean values of several measurements
Method in brief: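 For hGal-1, a variant with all six cysteines replaced by serines is preferred. Either galectin, biotinylated at 300-1000 ng/mL, competes with compound for microplate-bound ASF over 3 h at 4° C; peroxidase/ABTS detection gives IC50, averaged.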

human Gal-3 (hGal-3) = human Gal-3 (hGal-3) (Homo sapiens (Human), UniProt P17931); assay: Competitive binding assay: binding of biotinylated hGal-3 to microplate-adsorbed asialofetuin (ASF); details: Activity on hGal-3; mean values of several measurements
Method in brief: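 Compounds in DMSO dilution series competed with 300-1000 ng/mL biotinylated hGal-3 for asialofetuin adsorbed on the plate (3 h, 4° C). Streptavidin-peroxidase at 80 ng/mL (1 h, 4° C) with ABTS gave a spectrophotometric read-out, and IC50 was reported as the mean of repeat runs.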

human Gal-1 (hGal-1), sequence (P09382 2-135 limits assumed): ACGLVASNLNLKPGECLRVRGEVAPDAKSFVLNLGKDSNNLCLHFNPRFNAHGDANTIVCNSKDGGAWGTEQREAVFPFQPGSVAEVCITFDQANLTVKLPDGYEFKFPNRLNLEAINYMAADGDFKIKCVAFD
human Gal-3 (hGal-3), sequence (P17931 whole entry): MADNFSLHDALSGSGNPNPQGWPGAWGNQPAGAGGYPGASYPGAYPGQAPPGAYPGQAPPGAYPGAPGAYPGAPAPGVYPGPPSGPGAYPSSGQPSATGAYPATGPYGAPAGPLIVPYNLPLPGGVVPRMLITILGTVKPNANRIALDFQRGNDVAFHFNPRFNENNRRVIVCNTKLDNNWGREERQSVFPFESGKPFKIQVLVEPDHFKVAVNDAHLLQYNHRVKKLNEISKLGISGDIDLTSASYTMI

Row | Structure (SMILES) | IC50 (human Gal-1 (hGal-1)) | IC50 (human Gal-3 (hGal-3))
1 | CO[C@@H]1[C@@H](n2cc(-c3cc(F)c(F)c(F)c3)nn2)[C@@H](O)[C@@H](CO)O[C@@H]1Cc1cc(C2CCC(F)(F)CC2)on1 [Ex 1.79] | 4.24 µM | 0.27 µM
2 | CC(C)(C)OC(=O)NC1CCC(c2cc(C[C@H]3O[C@H](CO)[C@H](O)[C@H](n4cc(-c5cc(F)c(F)c(F)c5)nn4)[C@H]3O)no2)CC1 (stereo partly drawn) [Ex 1.80] | 43.8 µM | 0.11 µM
3 | CC(C)(C)OC(=O)NC1CCC(c2cc(C[C@H]3O[C@H](CO)[C@H](O)[C@H](n4cc(-c5cc(F)c(F)c(F)c5)nn4)[C@H]3O)no2)CC1 (stereo partly drawn) [Ex 1.81] | 14.5 µM | 0.2 µM
4 | CO[C@@H]1[C@@H](n2cc(-c3cc(F)c(F)c(F)c3)nn2)[C@@H](O)[C@@H](CO)O[C@@H]1Cc1cc(C2(O)CCC(C)(C)CC2)on1 [Ex 1.82] | 28.4 µM | 1.35 µM
5 | CO[C@@H]1[C@@H](n2cc(-c3cc(F)c(F)c(F)c3)nn2)[C@@H](O)[C@@H](CO)O[C@@H]1Cc1cc(C2(O)CCC(F)(F)CC2)on1 [Ex 1.83] | 8.21 µM | 0.4 µM
6 | CO[C@@H]1[C@@H](n2cc(-c3cc(F)c(F)c(F)c3)nn2)[C@@H](O)[C@@H](CO)O[C@@H]1Cc1cc(C2COC2)on1 [Ex 1.84] | 3.01 µM | 0.35 µM
7 | OC[C@H]1O[C@H](Cc2cc(C3CCN(c4ncco4)CC3)on2)[C@H](O)[C@@H](n2cc(-c3cc(F)c(F)c(F)c3)nn2)[C@H]1O [Ex 1.85] | 1.14 µM | 0.047 µM
8 | OC[C@H]1O[C@H](Cc2cc(C3CCN(c4nc5ccccc5s4)CC3)on2)[C@H](O)[C@@H](n2cc(-c3cc(F)c(F)c(F)c3)nn2)[C@H]1O [Ex 1.86] | > 100 µM | 0.089 µM
9 | OC[C@H]1O[C@H](Cc2cc(C3CCN(c4nccs4)CC3)on2)[C@H](O)[C@@H](n2cc(-c3cc(F)c(F)c(F)c3)nn2)[C@H]1O [Ex 1.87] | 1.97 µM | 0.08 µM
10 | COc1ccc(C2=NOC(C[C@@H]3O[C@H](CO)[C@H](O)[C@H](n4cc(-c5cc(F)c(F)c(F)c5)nn4)[C@H]3O)C2)cc1 (stereo partly drawn) [Ex 1.88] | 22.2 µM | 6.23 µM
11 | CO[C@@H]1[C@@H](n2cc(-c3cc(F)c(F)c(F)c3)nn2)[C@@H](O)[C@@H](CO)O[C@@H]1C[C@H]1CC([C@@H]2CCN(C)C(=O)C2)=NO1 [Ex 1.89] | 4.11 µM | 0.99 µM
12 | CO[C@@H]1[C@@H](n2cc(-c3cc(F)c(F)c(F)c3)nn2)[C@@H](O)[C@@H](CO)O[C@@H]1Cc1cc(C2CCN(C)C(=O)C2)no1 (stereo partly drawn) [Ex 1.90] | 1.78 µM | 0.26 µM
13 | CO[C@@H]1[C@@H](n2cc(-c3cc(F)c(F)c(F)c3)nn2)[C@@H](O)[C@@H](CO)O[C@@H]1C[C@H]1CC([C@@H]2CCNC(=O)C2)=NO1 [Ex 1.91] | 11.8 µM | 0.48 µM
14 | CO[C@@H]1[C@@H](n2cc(-c3cc(F)c(F)c(F)c3)nn2)[C@@H](O)[C@@H](CO)O[C@@H]1Cc1cc(C2CCNC(=O)C2)no1 (stereo partly drawn) [Ex 1.92] | 4.91 µM | 0.26 µM
15 | CO[C@@H]1[C@@H](n2cc(-c3cc(F)c(F)c(F)c3)nn2)[C@@H](O)[C@@H](CO)O[C@@H]1C[C@H]1CC([C@H]2CNC(=O)C2)=NO1 [Ex 1.93] | 16 µM | 0.55 µM
16 | CO[C@@H]1[C@@H](n2cc(-c3cc(F)c(F)c(F)c3)nn2)[C@@H](O)[C@@H](CO)O[C@@H]1Cc1cc(C2CNC(=O)C2)no1 (stereo partly drawn) [Ex 1.94] | 4.76 µM | 0.14 µM
17 | CO[C@@H]1[C@@H](n2cc(-c3cc(F)c(F)c(F)c3)nn2)[C@@H](O)[C@@H](CO)O[C@@H]1Cc1cc(C2CCC(=O)NC2)no1 (stereo partly drawn) [Ex 1.114] | 1.36 µM | 0.075 µM
18 | CO[C@@H]1[C@@H](n2cc(-c3cc(F)c(F)c(F)c3)nn2)[C@@H](O)[C@@H](CO)O[C@@H]1Cc1cc(-c2ccn(C)c(=O)c2)on1 [Ex 1.119] | 4.17 µM | 0.26 µM
19 | CO[C@@H]1[C@@H](n2cc(-c3cc(F)c(F)c(F)c3)nn2)[C@@H](O)[C@@H](CO)O[C@@H]1Cc1cc(C2CCCCC2)no1 [Ex 1.120] | 10.6 µM | 0.29 µM

Second part, the compound after the results:

Row | IC50 (human Gal-1 (hGal-1)) | IC50 (human Gal-3 (hGal-3)) | Structure (SMILES)
20 | 1.21 µM | 0.19 µM | CC(C)(C)OC(=O)N1CCC(C2=NOC(C[C@H]3O[C@H](CO)[C@H](O)[C@H](n4cc(-c5cc(F)c(Cl)cc5F)nn4)[C@H]3O)C2)CC1 (stereo partly drawn) [Ex 1.95]
21 | 8.65 µM | 1.74 µM | COc1ccc(F)cc1-c1cn([C@H]2[C@@H](O)[C@@H](CO)O[C@H](CC3CC(C4CCN(C(=O)OC(C)(C)C)CC4)=NO3)[C@@H]2O)nn1 (stereo partly drawn) [Ex 1.96]
22 | 3.25 µM | 0.031 µM | Cc1ccc(-c2cn([C@H]3[C@@H](O)[C@@H](CO)O[C@H](CC4CC(C5CCN(C(=O)OC(C)(C)C)CC5)=NO4)[C@@H]3O)nn2)c(F)c1F (stereo partly drawn) [Ex 1.97]
23 | 1.84 µM | 1.56 µM | CC(C)(C)OC(=O)N1CCC(C2=NOC(C[C@H]3O[C@H](CO)[C@H](O)[C@H](n4cc(-c5ccc6ncsc6c5)nn4)[C@H]3O)C2)CC1 (stereo partly drawn) [Ex 1.98]
24 | 0.471 µM | 0.4 µM | Cc1cc(-c2cn([C@H]3[C@@H](O)[C@@H](CO)O[C@H](CC4CC(C5CCN(C(=O)OC(C)(C)C)CC5)=NO4)[C@@H]3O)nn2)ccc1F (stereo partly drawn) [Ex 1.99]
25 | 4.9 µM | 0.65 µM | CC(C)(C)OC(=O)N1CCC(C2=NOC(C[C@H]3O[C@H](CO)[C@H](O)[C@H](n4cc(-c5ccc(C#N)c(F)c5)nn4)[C@H]3O)C2)CC1 (stereo partly drawn) [Ex 1.100]
26 | 4.1 µM | 0.18 µM | CC(C)(C)OC(=O)N1CCC(C2=NOC(C[C@H]3O[C@H](CO)[C@H](O)[C@H](n4cc(-c5cc(F)c(Cl)c(F)c5)nn4)[C@H]3O)C2)CC1 (stereo partly drawn) [Ex 1.101]
27 | 2.37 µM | 0.082 µM | CC(C)(C)OC(=O)N1CCC(C2=NOC(C[C@H]3O[C@H](CO)[C@H](O)[C@H](n4cc(-c5ccc(Cl)c(F)c5F)nn4)[C@H]3O)C2)CC1 (stereo partly drawn) [Ex 1.102]
28 | 9.82 µM | 0.45 µM | CC(C)(C)OC(=O)N1CCC(C2=NOC(C[C@H]3O[C@H](CO)[C@H](O)[C@H](n4cc(-c5ccc(C(F)(F)F)c(F)c5)nn4)[C@H]3O)C2)CC1 (stereo partly drawn) [Ex 1.103]
29 | 0.45 µM | 1.84 µM | CC(C)(C)OC(=O)N1CCC(C2=NOC(C[C@H]3O[C@H](CO)[C@H](O)[C@H](n4cc(-c5ccc(F)cn5)nn4)[C@H]3O)C2)CC1 (stereo partly drawn) [Ex 1.104]
30 | 2.34 µM | 1.68 µM | CC(C)(C)OC(=O)N1CCC(C2=NOC(C[C@H]3O[C@H](CO)[C@H](O)[C@H](n4cc(-c5cc(Cl)ccc5Cl)nn4)[C@H]3O)C2)CC1 (stereo partly drawn) [Ex 1.105]
31 | 1.53 µM | 0.49 µM | COc1cc(F)c(F)cc1-c1cn([C@H]2[C@@H](O)[C@@H](CO)O[C@H](CC3CC(C4CCN(C(=O)OC(C)(C)C)CC4)=NO3)[C@@H]2O)nn1 (stereo partly drawn) [Ex 1.106]
32 | 0.4 µM | 0.11 µM | CC(C)(C)OC(=O)N1CCC(C2=NOC(C[C@H]3O[C@H](CO)[C@H](O)[C@H](n4cc(-c5ccc(Cl)c(Cl)c5)nn4)[C@H]3O)C2)CC1 (stereo partly drawn) [Ex 1.107]
33 | 1.69 µM | 0.18 µM | COc1cc(-c2cn([C@H]3[C@@H](O)[C@@H](CO)O[C@H](CC4CC(C5CCN(C(=O)OC(C)(C)C)CC5)=NO4)[C@@H]3O)nn2)cc(F)c1F (stereo partly drawn) [Ex 1.108]
34 | 0.21 µM | 1.6 µM | CC(C)(C)OC(=O)N1CCC(C2=NOC(C[C@H]3O[C@H](CO)[C@H](O)[C@H](n4cc(-c5nc6ccccc6s5)nn4)[C@H]3O)C2)CC1 (stereo partly drawn) [Ex 1.109]
35 | 2.24 µM | 0.25 µM | COc1cc(-c2cn([C@H]3[C@@H](O)[C@@H](CO)O[C@H](CC4CC(C5CCN(C(=O)OC(C)(C)C)CC5)=NO4)[C@@H]3O)nn2)ccc1Cl (stereo partly drawn) [Ex 1.110]
36 | 11.5 µM | 1.66 µM | COc1cc(OC)c(-c2cn([C@H]3[C@@H](O)[C@@H](CO)O[C@H](CC4CC(C5CCN(C(=O)OC(C)(C)C)CC5)=NO4)[C@@H]3O)nn2)cc1F (stereo partly drawn) [Ex 1.111]
37 | 0.77 µM | 1 µM | Cc1c(F)cccc1-c1cn([C@H]2[C@@H](O)[C@@H](CO)O[C@H](CC3CC(C4CCN(C(=O)OC(C)(C)C)CC4)=NO3)[C@@H]2O)nn1 (stereo partly drawn) [Ex 1.112]
38 | 0.64 µM | 1.06 µM | COc1ccc(-c2cn([C@H]3[C@@H](O)[C@@H](CO)O[C@H](CC4CC(C5CCN(C(=O)OC(C)(C)C)CC5)=NO4)[C@@H]3O)nn2)cc1 (stereo partly drawn) [Ex 1.113]
39 | 0.94 µM | 0.44 µM | CO[C@@H]1[C@@H](n2cc(-c3cccc(F)c3)nn2)[C@@H](O)[C@@H](CO)O[C@@H]1CC1CC(C2CCN(C(=O)OC(C)(C)C)CC2)=NO1 (stereo partly drawn) [Ex 1.115]
40 | 1.75 µM | 0.17 µM | CO[C@@H]1[C@@H](n2cc(-c3ccc(Cl)c(F)c3)nn2)[C@@H](O)[C@@H](CO)O[C@@H]1CC1CC(C2CCN(C(=O)OC(C)(C)C)CC2)=NO1 (stereo partly drawn) [Ex 1.116]
41 | 1.14 µM | 0.33 µM | CO[C@@H]1[C@@H](n2cc(-c3ccc(Br)c(F)c3)nn2)[C@@H](O)[C@@H](CO)O[C@@H]1CC1CC(C2CCN(C(=O)OC(C)(C)C)CC2)=NO1 (stereo partly drawn) [Ex 1.117]
42 | 1.47 µM | 0.33 µM | CO[C@@H]1[C@@H](n2cc(-c3cc(F)cc(F)c3)nn2)[C@@H](O)[C@@H](CO)O[C@@H]1CC1CC(C2CCN(C(=O)OC(C)(C)C)CC2)=NO1 (stereo partly drawn) [Ex 1.118]
43 | 1.09 µM | 0.082 µM | CO[C@@H]1[C@@H](n2cc(-c3ccc(Cl)c(F)c3)nn2)[C@@H](O)[C@@H](CO)O[C@@H]1Cc1cc(C2CCN(C(=O)OC(C)(C)C)CC2)on1 [Ex 1.121]
44 | 0.72 µM | 0.14 µM | CO[C@@H]1[C@@H](n2cc(-c3cc(F)cc(F)c3)nn2)[C@@H](O)[C@@H](CO)O[C@@H]1Cc1cc(C2CCN(C(=O)OC(C)(C)C)CC2)on1 [Ex 1.122]
45 | 0.14 µM | 0.14 µM | CO[C@@H]1[C@@H](n2cc(-c3cccc(F)c3)nn2)[C@@H](O)[C@@H](CO)O[C@@H]1Cc1cc(C2CCN(C(=O)OC(C)(C)C)CC2)no1 [Ex 1.123]
